Source: US20140050773A1, “COMPOUND COMPRISING ALPHA-MSH FOR USE IN ENDODONTIC REGENERATION” (Universite De Strasbourg, priority 2010, published 2014)

How the values were obtained:
[1] = tested on: pulp fibroblasts; type: cell-based, human
Experimental: (§1) Cell viability was determined by trypan blue exclusion. Cell proliferation was measured by the acid phosphatase method. Briefly, cells were washed with […] PBS. The buffer added to each well contains 0.1 M sodium acetate (pH 5.5), 0.1% of X-100 Triton and 10 mM of p-nitrophenyl phosphate [pNPP] (Sigma, St Quentin, France). After a 3 h-incubation at 37° C. with 5% 002 the reaction was stopped by the addition of 1 N sodium hydroxide and the absorbance was measured by spectrophotometer at 405 nm (Labsystems, iEMS Reader MF, Gibco). Cell viability and proliferation were measured at 24 and 96 hours. Cell spreading and adhesion were observed by confocal microscopy. AlamarBlue® (Serotec) was used to assess cellular proliferation. The AlamarBlue test is a non-toxic, water-soluble, calorimetric redox indicator that changes color in response to cell metabolism. […] After 6 hours, […] of incubation media was transferred to 96-well plates and measured at 590 nm and 630 nm in order to determine the percentage of AlamarBlue reduction. The ability of free α-MSH and PGA-α-MSH to promote proliferation and/or adhesion of fibroblasts was also determined. Cell viability was determined by trypan blue exclusion and the proliferation was measured by the acidic phosphatase method (FIG. 4).

[2] = tested on: pulp fibroblasts; assay: Pulp fibroblast adhesion by confocal microscopy; type: cell-based, human; conditions: 2 days of culture; FIG. 5
Experimental: Cell spreading and adhesion were observed by confocal microscopy. […] In this study, 5×10^4 pulp fibroblasts were seeded on the top of LbL-coated 14 mm-diameter coverslips (n=3) placed on 24-well plates. […] After 2 days of proliferation, cells were fixed with 4% PFA during 1 hour, permeabilized with 0.1% Triton X-100 for 1 hour and incubated for 20 min with Alexa Fluor 546-conjugated phalloidin (Molecular Probes) for F-actin labeling and 5 min with 200 nM DAPI (Sigma) for nuclear staining. Cells were mounted on microscope slides using Vectashield (Vector) and imaged by confocal microscopy (Zeiss, LSM 510). CLSM observations were documented with a Zeiss LSM 510 microscope using a ×40/1.4 oil immersion objective at 0.4 μm z-section intervals. FITC fluorescence was detected after excitation at 488 nm with a cutoff dichroic mirror 488 nm and an emission band-pass filter 505-530 nm (green). All experiments were performed with cells in solution.

[3] = tested on: pulp fibroblasts; assay: Cell proliferation by the acid phosphatase method; type: cell-based, human; conditions: in solution, FIG. 4 lower part
Experimental: as §1

[4] = tested on: LPS-stimulated pulp fibroblasts; assay: TNF-α, IL-8 and IL-10 production by LPS-stimulated pulp fibroblasts (ELISA); type: cell-based, human
Experimental: Human pulp fibroblasts were obtained from human third molar germ tissue extracted for orthodontic reasons (Dental School, Strasbourg). These tissues were used with the patient's informed consent and approval by the Research Ethics Committee. Human pulp fibroblasts and mouse embryo fibroblasts (NIH 3T3, a gift of IGBMC, Strasbourg, France) were cultured in Dulbecco's modified Eagle's medium (D-MEM®) containing 1% antimicotic solution and 10% FBS (Life Technologies, Paisley, UK). The cultures were incubated at 37° C. in a humidified atmosphere of 5% CO2. When the cells reached sub-confluence, they were harvested with trypsin and sub-cultured. The fibroblast cultures used for all experiments were from passages three to six. Fibroblasts (5×10^5) were seeded in 24-well plates (Nunc, CML, Nemours, France) and incubated with LPS (10 ng·mL^−1) from E, coli in the presence or absence of free α-MSH or PGA-Q-MSH coupled peptides, in D-MEM® without FBS. At different time-points of incubation, cells were centrifuged and the levels of TNF-α, IL-10 or IL-8 in cell-free supernatants were determined using commercially available ELISA kits (Endogen, Woburn, Mass.). Studies of the effects of multilayer films consisting of PGA-α-MSH coupled peptides were conducted by seeding 5×10^5 cells directly onto the film in a 24-well plate as previously described (Chluba et al. Biomacromolecules. 2001, 2:800-805). All experiments were performed at least three times. […]

[5] = biological target: MCR receptors (melanocortin receptors) on human pulp fibroblasts; assay: cell-based or functional assay
[6] = tested on: pulp fibroblasts; assay: Intracellular cAMP accumulation in pulp fibroblasts; type: cell-based, human; conditions: 30 min; forskolin 3 μM, MTII 10 μg·mL-1; basal level 239±36 fmol/well
Experimental: Pulp fibroblasts (1×10^5) were plated in 24-well-plates in D-MEM® containing 1% antimicotic solution and 10% FBS (Life Technologies, Paisley, UK). The cultures were incubated at 37° C. in a humidified atmosphere of 5% CO2, and allowed to adhere for 2 h. Cells were then washed and incubated with […] Forskolin (positive control), the MC3/4R agonist MTII (10 μg·mL^−1), the MC1R agonist MS05 (10 μg·mL^−1), and PGA-α-MSH (10-300 μg·mL^−1) in the presence of 1 mM isobutylmethylxantine in serum-free medium and incubated for 30 min at 37° C. in a humidified atmosphere of 5% CO2. A non-treated group incubated in serum-free medium alone served as a negative control. Cell supernatants were then removed and the cells were lysed. Intracellular cAMP was quantified using a commercially available enzyme immunoassay kit and a standard curve constructed with 0-3200 fmol μg·mL-1 cAMP (Amersham Bioscience, Little Chalfont, U.K).

HS—CH2CH2-Ser-Tyr-Ser-Nle-Glu-His-D-Phe-Arg-Trp-Gly-Lys-Pro-Val-COOH [α-MSH]
viability of pulp fibroblasts [1]: not the viability
adhesion of pulp fibroblasts [2]: without effect
proliferation of pulp fibroblasts [3]: inhibits the proliferation
proliferation of pulp fibroblasts ([3]; listed as free α-MSH): without effect
LPS-induced IL-8 secretion ([4]; 100 μg·mL^−1, 6 h time period): no inhibition
IL-10 production by LPS-stimulated pulp fibroblasts ([4]; LPS 10 ng mL^−1, 100 μg·mL-1 peptide, late (4 hours)): induced significant levels
amount of IL-8 produced (LPS-stimulated) ([4]; concentration increased to 400 μg·mL-1, data not shown): did not change
LPS induced TNF-α secretion ([4]; early timepoints (20 min to 2 h), LPS 10 ng mL^−1, 100 μg·mL-1 peptide): significantly inhibited
LPS induced TNF-α secretion ([4]; later time-points (4-6 h), LPS 10 ng mL^−1, 100 μg·mL-1 peptide): this effect was lost

MTII (peptide)
intracellular cAMP accumulation in pulp fibroblasts, 30 min [5]: 459 fmol/well

MTII
cAMP concentration [6]: 459±14 fmol/well

C=C[C@@]1(C)CC(=O)[C@]2(O)[C@@]3(C)[C@@H](O)CCC(C)(C)[C@@H]3[C@H](O)[C@H](OC(C)=O)[C@@]2(C)O1 [forskolin, Forskolin]
cAMP concentration [6]: 3367±242 fmol/well
